The values below come from PubChem BioAssay AID1959 (Broad Institute, 2009).

Each structure is given as a SMILES string. The source made the active and inactive calls.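 Rule for the calls: active = growth-inhibition EC50 no more than tenfold above the top tested dose; inconclusive = flat fit between 30% and 70% inhibition, or unreliable fit; inactive = EC50 more than tenfold above the top tested dose.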

For the test, the system named is E. coli NEB5alpha growth, BacTiter-Glo luminescence, 4 h. The test is described as follows: Escherichia coli growth inhibition, dose response, counter-screen for MEX-5/POS-1 RNA-binding inhibitor project, luminescence, NEB5alpha (AID 1959).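 Note: pUC19-transformed ampicillin-resistant cells grown in LB with ampicillin.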 On the technique in general: Counterscreens check selectivity or assay interference.
As for `CCN(CC)c1nc(-c2nn[nH]n2)nc(N(CC)CC)n1`, the EC50 was > 11 µM (inactive).

`COc1ccccc1NC(=S)NNC(=O)c1cc(C)n(C)n1`: the EC50 is > 11 µM (inactive).

`O=C(/C=C/c1c(Cl)cccc1Cl)N1CCOCC1`: the EC50 was > 11 µM (inactive).

On to `CCOC(=O)c1ccc(CC(=O)c2ccc(O)c(O)c2O)o1`, for which the EC50 is > 11 µM (inactive).

Take `O=C(N/N=C/c1ccc(-c2cccc([N+](=O)[O-])c2)o1)c1ccc([N+](=O)[O-])cc1`: the EC50 was > 11 µM (inactive).

For `N#Cc1c(N)nc(SCc2ccncc2)c(C#N)c1-c1cccs1`, the EC50 is > 11 µM (inactive).

For `CN1C(=O)C(=Cc2ccc(N3CCCCC3)o2)C(=O)N(C)C1=S`, the EC50 is > 11 µM (inactive).

In the case of `COCCN1CCC(CNCc2cn[nH]c2-c2ccc(C)c(C)c2)C1` (stereo not given), the EC50 was > 11 µM (inactive).

With `N/C(=N\N=C/c1ccc(-c2ccc(O)c(C(=O)O)c2)o1)N[N+](=O)[O-]`, the EC50 was > 11 µM (inactive).

Take `CC(C)OC(=O)CC(=O)c1sc2nc3c(cc2c1N)CN(C)CC3`: the EC50 was > 11 µM (inactive).

In the case of `CC1(C)CC(=O)C2=C(C1)OC(/N=C/N1CCOCC1)=C(C#N)C2c1ccccc1` (stereo not given), the EC50 is > 11 µM (inactive).

With `N#Cc1c(-c2ccc(Cl)cc2)c2c([nH]c1=O)-c1ccccc1OC2`, the EC50 was > 11 µM (inactive).

On to `CCC(C)n1c(=N)c(C#N)cc2c(=O)n3cc(C)ccc3nc21` (stereo not given), for which the EC50 was > 11 µM (inactive).

`O=C(O)c1ccccc1-n1cccc1C(=O)O`: the EC50 was > 11 µM (inactive).

As for `N#CC1=C(N)OC2=C(C(=O)CCC2)C1c1ccc2c(c1)OCO2` (stereo not given), the EC50 is > 11 µM (inactive).

Take `CCCCNC(=O)c1cc2c(=O)n3cccc(C)c3nc2n(Cc2ccncc2)c1=N`: the EC50 was > 11 µM (inactive).

`COc1cccc(=O)c2c(C)oc(C)c12`: the EC50 is > 11 µM (inactive).

Turning to `Cc1ccc(C(=O)O)cc1-n1c(C)cc(C=O)c1C`, the EC50 was > 11 µM (inactive).

Turning to `CCC1(c2ccccc2)NC(=O)N(CC(=O)NCc2ccc(F)cc2)C1=O` (stereo not given), the EC50 was > 11 µM (inactive).

Turning to `COc1ccc(/C=C2\CCCC(C(=O)C(F)(F)F)=C2O)cc1OC`, the EC50 was > 11 µM (inactive).

For `CC(C)(C)OC(=O)N1CC=C2C(C#N)=C(N)C(C#N)(C#N)[C@H](c3cccnc3)[C@H]2C1`, the EC50 is > 11 µM (inactive).

Consider `COc1ccc(/C=C/c2nc3sc4c(c3c(=O)o2)CCC4)cc1`, for which the EC50 is > 11 µM (inactive).

Turning to `Cc1cc2c3c(c1)C(C)CC(C)(C)N3C(=O)C2=O` (stereo not given), the EC50 is > 11 µM (inactive).

Regarding `CCN(CC)c1ccc(N=Nc2ncn[nH]2)cc1`, the EC50 is > 11 µM (inactive).

In the case of `O=C(NNC(=O)c1ccc2ccccc2c1O)c1ccccc1Cl`, the EC50 is > 11 µM (inactive).

In the case of `O=C(O)c1ccc2c(c1)[C@@H]1C=CC[C@@H]1[C@H](c1ccccn1)N2`, the EC50 is > 11 µM (inactive).

As for `Cc1cc(/C=C2\C(=O)NC(=O)N(Cc3ccccc3)C2=O)c(C)n1C1CC1`, the EC50 is > 11 µM (inactive).

As to `O=C1NC(=O)N(c2ccccc2)C(=O)/C1=C/c1coc2ccc(O)cc2c1=O`, the EC50 was > 11 µM (inactive).

With `CCCCc1cn([C@@H](CCCCN)C(=O)N2CCNCC2)nn1`, the EC50 was > 11 µM (inactive).

Consider `COc1ccc(CCn2c(=N)c(C(=O)NC3CCCCC3)cc3c(=O)n4ccccc4nc32)cc1`, for which the EC50 was > 11 µM (inactive).

In the case of `CCc1c(C(=O)NNC(=S)Nc2ccc(S(=O)(=O)Nc3ncccn3)cc2)csc1C`, the EC50 is > 11 µM (inactive).

For the molecule `COc1ccccc1Nc1nc2nonc2nc1N1CCCCC1C` (stereo not given), the EC50 is > 11 µM (inactive).

Turning to `Cc1ccc(N=Nc2c(O)ccc3n[nH]nc23)cc1`, the EC50 was > 11 µM (inactive).

Take `CN=C1S/C(=C\c2ccc(O)c(OC)c2)C(=O)N1C`: the EC50 was > 11 µM (inactive).

With `CCOC(=O)C1Nc2c(F)cc(C)cc2C2C=CCC12` (stereo not given), the EC50 was > 11 µM (inactive).

Turning to `CCCCn1c(O)c(/C=C2\C=Nc3ccccc32)c(=O)[nH]c1=O`, the EC50 is > 11 µM (inactive).

In the case of `COc1cc(C2C(C#N)=C(N)OC3=C2C(=O)CC(C)(C)C3)ccc1OCCN1CCOCC1` (stereo not given), the EC50 is > 11 µM (inactive).

On to `Cc1cc(C(=O)O)ccc1-n1c(C)cc(C=C2C(=O)c3ccccc3C2=O)c1C`, for which the EC50 is > 11 µM (inactive).

`COc1ccc(/C=C2\N=C(C)OC2=O)cc1OC`: the EC50 is > 11 µM (inactive).

`O=C(Nc1nccs1)c1ccc(-c2ccc([N+](=O)[O-])cc2)o1`: the EC50 was > 11 µM (inactive).

For the molecule `COc1ccccc1NC(=O)/C(C#N)=C/c1cc([N+](=O)[O-])ccc1N1CCCC1`, the EC50 is > 11 µM (inactive).

With `COc1ccc(C2OC34CCCCC3C(C#N)(C#N)C2(C#N)C(=N)O4)cc1` (stereo not given), the EC50 was > 11 µM (inactive).

With `CN1C(=O)C(=Cc2ccc(Sc3ccccc3)o2)C(=O)N(C)C1=S`, the EC50 is > 11 µM (inactive).

Regarding `Cc1ccc(/C=C(\C#N)C(=O)Nc2c(C)cccc2C)s1`, the EC50 was > 11 µM (inactive).

Regarding `NC(N)=NS(=O)(=O)c1ccc(NC(=S)NC(=O)/C=C/c2cccs2)cc1`, the EC50 is > 11 µM (inactive).

Regarding `CCOCCCNC(=O)CCC(=O)NNc1nc2ccccc2c2nc(C)nn12`, the EC50 is > 11 µM (inactive).

For `Cc1ccc(NC(=O)/C(C#N)=C/c2ccc(C)s2)c(C)c1`, the EC50 is > 11 µM (inactive).

With `CSc1nnc(N2C(=O)C(O)=C(C(=O)c3ccco3)C2c2ccccc2)s1` (stereo not given), the EC50 was > 11 µM (inactive).

Turning to `COc1ccc(OC)c(S(=O)(=O)NC2CCN(Cc3ccccc3)CC2)c1`, the EC50 was > 11 µM (inactive).

For `Cc1ccc(N2C(=O)/C(=C/c3ccc(CN(CCC#N)S(C)(=O)=O)o3)C(=O)NC2=S)cc1`, the EC50 was > 11 µM (inactive).

`CCOC(=O)C1Nc2ccc(C(F)(F)F)cc2C2C=CCC12` (stereo not given): the EC50 was > 11 µM (inactive).

`CC(=O)NC1=NC(=O)/C(=C/c2cc(C)n(-c3cccc(C(=O)O)c3)c2C)S1`: the EC50 is > 11 µM (inactive).

Regarding `Cn1cccc1/C=C1\C(=O)NC(=O)N(CCC2=CCCCC2)C1=O`, the EC50 is > 11 µM (inactive).

For `CC(C)CNC(=O)c1ccc(C2SCC(=O)N2Cc2ccccc2)cc1` (stereo not given), the EC50 was > 11 µM (inactive).

In the case of `O=C(O)CCc1ccc(-c2cccs2)n1-c1ccc(C(=O)O)cc1`, the EC50 was > 11 µM (inactive).

As to `COc1ccccc1CCC(=O)OCc1csc(CC(=O)Nc2ccccc2C)n1`, the EC50 is > 11 µM (inactive).

Consider `N=c1c(S(=O)(=O)c2ccc(Cl)cc2)cc2c(=O)n3ccccc3nc2n1C1CCCCC1`, for which the EC50 is > 11 µM (inactive).

`CC1(C)CC(=O)C2=C(C1)OC(N)=C(C#N)C2c1cccc(OC(=O)c2ccco2)c1` (stereo not given): the EC50 is > 11 µM (inactive).

Turning to `NS(=O)(=O)c1ccc(-c2ccc(/C=C3\SC(=O)NC3=O)o2)cc1`, the EC50 was > 11 µM (inactive).

`CCCCNC(=S)NNC(=O)c1cc(C)on1`: the EC50 is > 11 µM (inactive).

In the case of `N=c1c(S(=O)(=O)c2ccc(Br)cc2)cc2c(=O)n3ccccc3nc2n1C1CCCCC1`, the EC50 is > 11 µM (inactive).

For `COc1ccc(C2C(C#N)=C(N)OC3=C2C(=O)CC(C)(C)C3)cc1` (stereo not given), the EC50 is > 11 µM (inactive).

In the case of `Cc1ccc(/C=C2/C(=O)NC(=O)N(CCc3ccc(F)cc3)C2=O)o1`, the EC50 is > 11 µM (inactive).

Turning to `Cc1ccc(NC(=O)CN2C(=O)N/C(=C\c3cccn3-c3cccc(C(=O)O)c3)C2=O)cc1`, the EC50 is > 11 µM (inactive).

In the case of `CN(C)c1ccc(/C=C/C(=O)c2cccc(Br)c2)cc1`, the EC50 was > 11 µM (inactive).

On to `CCNC(=S)N(C)CCc1cc2c(c(OC)c1C=C1C(=O)N(C)C(=O)N(C)C1=O)OCO2`, for which the EC50 was > 11 µM (inactive).

Take `CCc1ccccc1N1C(=O)/C(=C/c2ccc(N3CCN(C)CC3)o2)C(=O)NC1=S`: the EC50 was > 11 µM (inactive).

On to `CCCCOC(=O)Cn1c2ccc(OC)cc2c2nc3ccccc3nc21`, for which the EC50 is > 11 µM (inactive).

Regarding `CC1=C(C#N)C(=O)NC(=O)/C1=C/c1ccc(-c2ccc(S(N)(=O)=O)cc2)o1`, the EC50 is > 11 µM (inactive).

`Nc1ccc2nc(-c3ccccc3)c(-c3ccccc3)nc2c1`: the EC50 was > 11 µM (inactive).

On to `CC(C)(C)c1ccc(/C=C2\Oc3cc(O)ccc3C2=O)cc1`, for which the EC50 is > 11 µM (inactive).

Take `C=CCN=c1scc(-c2ccco2)n1/N=C/c1ccc(O)c(O)c1O`: the EC50 was > 11 µM (inactive).

Regarding `CN1C=C/C(=C\c2cc[n+](C)c3ccccc23)c2ccccc21`, the EC50 is > 11 µM (inactive).

`Cc1ccc(-c2nnc(Nc3ccc(CC(N)=O)cc3)c3ccccc23)cc1S(N)(=O)=O`: the EC50 is > 11 µM (inactive).

`CCOC(=O)c1c2ccc(OCC(=O)N/N=C/c3ccc(C)cc3)cc2n2ccccc12`: the EC50 was > 11 µM (inactive).

For the molecule `COc1cc(C2C(C#N)=C(N)OC3=C2C(=O)CCC3)ccc1OC(=O)N1CCOCC1` (stereo not given), the EC50 is > 11 µM (inactive).

For the molecule `CSc1nncc(/C(C)=N\Nc2ccccc2)n1`, the EC50 was > 11 µM (inactive).

Regarding `COc1ccc(/C=C2\SC(=S)N(CCCC(=O)NC3CCCC3)C2=O)cc1OC`, the EC50 is > 11 µM (inactive).

`O=C(O)c1cccc(-n2cccc2/C=C2\NC(=O)N(Cc3ccc(F)cc3)C2=O)c1`: the EC50 was > 11 µM (inactive).

As for `CC1C2C(C)N(C)C(=O)N(C)C2N(C)C(=O)N1C` (stereo not given), the EC50 is > 11 µM (inactive).

As to `Cc1n[nH]c(C)c1Sc1ccccc1N=Cc1cc(Cl)cc([N+](=O)[O-])c1O`, the EC50 was > 11 µM (inactive).

As to `Cc1ccc(C(=O)Oc2oc(-c3ccccc3)nc2C=Nc2ccc(N(C)C)cc2)cc1`, the EC50 was > 11 µM (inactive).

Turning to `COc1ccc(Nc2nc(-c3cccnc3)nc3ccccc23)cn1`, the EC50 was > 11 µM (inactive).

As to `COc1ccc(C2=CC3=C(Br)C(=O)C(C)(OC(=O)c4ccco4)C(=O)C3=CO2)cc1` (stereo not given), the EC50 was > 11 µM (inactive).

Turning to `Cc1c(C(=O)O)cccc1-n1c(C)cc(C=O)c1C`, the EC50 was > 11 µM (inactive).

What is called EC50 is the concentration at which the effect is half-maximal.
